# According to the PolyMetriX glass transition set:
# ± gives the standard deviation of the reports.
row,glass transition temperature,SMILES
1,58.00 °C,*c1ccc2c(c1)C(CCCCCC)(CCCCCC)c1cc(-c3cc(OCCCCCCCC)c(*)cc3OCCCCCCCC)ccc1-2 (repeat unit)
2,345.00 °C,*Nc1ccc(C(=O)c2c(C)c(C)c(C(=O)c3ccc(NC(=O)c4ccc(C(*)=O)cc4)cc3)c(C)c2C)cc1 (repeat unit)
3,-87.00 °C,*O[Si](C)(C)O[Si](C)(C)OC(C)CCCCC(*)C (repeat unit)
4,219.00 °C,*CCCCCCCCCCN1C(=O)C2C3C=CC(C4C(=O)N(*)C(=O)C34)C2C1=O (repeat unit)
5,15.00 °C,*c1cccc(OCCCCCCCCCCCOC(=O)c2cccc(C(=O)OCCCCCCCCCCCOc3cccc(-c4nnc(*)s4)c3)c2)c1 (repeat unit)
6,70.00 °C,*CC1CCC(COC(=O)c2cccc(C(=O)O*)c2)CC1 (repeat unit)
7,386.00 °C,*Oc1ccc(Sc2ccc(Oc3ccc4c(=O)n5c6cc(-c7ccc8c(c7)nc7c9ccc(*)c%10cccc(c(=O)n87)c%109)ccc6nc5c5cccc3c45)cc2)cc1 (repeat unit)
8,128.00 °C,*C(=O)c1ccc2c(c1)C(=O)N(c1ccc(-c3ccc(N4C(=O)c5ccc(*)cc5C4=O)c(OCCCCCCOc4ccc(/C=C/c5ccc(F)cc5)cc4)c3)cc1OCCCCCCOc1ccc(/C=C/c3ccc(F)cc3)cc1)C2=O (repeat unit)
9,103.00 °C,*CCN(CCOC(=O)NC(C)(C)c1cccc(C(C)(C)NC(=O)O*)c1)c1ccc(/N=N/c2ccc([N+](=O)[O-])cc2)cc1 (repeat unit)
10,127.00 °C,*CCN(CCOC(=O)c1ccc([Si](C)(C)c2ccc(C(=O)O*)cc2)cc1)c1ccc(/C=C/c2ccc([N+](=O)[O-])cc2)cc1 (repeat unit)
11,13.00 °C,*CC(*)c1ccc(COCCC(F)(F)C(F)(F)C(F)(F)C(F)(F)F)cc1 (repeat unit)
12,172.00 °C,*CCNC(=O)c1ccc(C(=O)N*)c(Sc2ccccc2)c1 (repeat unit)
13,151.00 °C,*Oc1ccc(S(=O)c2ccc(Oc3ccc(/C=N/N=C/c4ccc(*)cc4)cc3)cc2)cc1 (repeat unit)
14,180.00 °C,*c1cc(-c2nc3ccccc3[nH]2)cc(-n2c(=O)c3cc4c(=O)n(*)c(=O)c4cc3c2=O)c1 (repeat unit)
15,245.00 °C,*CC(*)c1ccc(B(Oc2ccc(-c3c(F)c(F)c(F)c(F)c3F)c3cccnc23)c2ccc(C(C)(C)C)cc2)cc1 (repeat unit)
16,76.00 °C,*O[Si](*)(C)CCc1cc(C(=O)Oc2ccc(OCCCCCCCCCCCC)cc2)ccc1-c1ccc(C(=O)Oc2ccc(OCCCCCCCCCCCC)cc2)cc1 (repeat unit)
17,43.00 °C,*CNC(=O)OCC(OC(=O)NCc1ccc(C(CCC)c2ccc(*)o2)o1)c1ccco1 (repeat unit)
18,56.00 °C,*CC(CO*)(CS(=O)(=O)CCCCC)CS(=O)(=O)CCCCC (repeat unit)
19,206.00 °C,*Oc1ccc(OC(=O)c2ccc(C(*)=O)cc2)cc1C1CCCCC1 (repeat unit)
20,188.00 °C,*CCCC(=O)Nc1ccc(Oc2cccc(NC(=O)CCCN3C(=O)c4ccc(C(=O)c5ccc6c(c5)C(=O)N(*)C6=O)cc4C3=O)c2)cc1 (repeat unit)
21,101.00 °C,*Oc1ccc(Oc2ccc(/C=N/CC/N=C/c3ccc(*)cc3)cc2)cc1 (repeat unit)
22,-15.00 °C,*O[Si](C)(C)O[Si](*)(C)CCCCCCCCOc1ccc(C(=O)Oc2ccc(C#N)cc2C)cc1 (repeat unit)

# The next lines start with the compound.
row,SMILES,glass transition temperature
1,*Oc1ccc(P(=O)(c2ccccc2)c2ccc(*)cc2)cc1 (repeat unit),240.00 °C
2,*OC(*)CCCCCC (repeat unit),-116.00 °C
3,*C(F)(F)C(*)(F)C(F)(F)F (repeat unit),158.50 °C
4,*COC(=O)c1ccc(/C(C#N)=C(\c2ccc(OC)cc2)N2CCCC(*)C2)cc1 (repeat unit),176.00 °C
5,*CC(*)OC(=O)C(C)(CC)C(C)(C)C (repeat unit),120.00 °C
6,*c1ccc2c(c1)C(=O)N(c1ccc(Oc3ccc(N4C(=O)c5ccc(C(*)(C(F)(F)F)C(F)(F)F)cc5C4=O)cc3Br)c(Br)c1)C2=O (repeat unit),299.00 °C
7,*c1cc(C(c2ccc(OCCN(C)c3ccc(/C=C/C4=CC(=C(/C#N)C(=O)OC)/CC(C)(C)C4)cc3)c(N3C(=O)c4ccc(Oc5ccc6c(c5)C(=O)N(*)C6=O)cc4C3=O)c2)(C(F)(F)F)C(F)(F)F)ccc1OCCN(c1ccccc1)c1ccc(/C=C/C2=CC(=C(/C#N)C(=O)OC)/CC(C)(C)C2)cc1 (repeat unit),207.00 °C
8,*CC(C)CNC(=O)O* (repeat unit),40.00 °C
9,*CCCCCC(=O)N* (repeat unit) [Poly(6-aminohexanoic acid)],55.73 ± 5.6 °C
10,*OP(=O)(Oc1ccc(Br)cc1)Oc1c(Br)cc(C(c2cc(Br)c(*)c(Br)c2)(C(F)(F)F)C(F)(F)F)cc1Br (repeat unit),152.00 °C
11,*c1ccc(Oc2ccc(NC(=O)c3ccc(Oc4ccc5c(c4)C(=O)N(*)C5=O)cc3)cc2)cc1 (repeat unit),262.00 °C
12,*CC(*)OC(=O)c1ccc(OCC)cc1 (repeat unit),70.00 °C
13,*Oc1ccc(C(C)(C)c2ccc(Oc3cncc(*)n3)cc2)cc1 (repeat unit),145.00 °C
14,*Cc1ccc(CO*)cc1 (repeat unit),217.00 °C
15,*CC(*)c1ccc(Cl)cc1 (repeat unit) [Poly(4-chlorostyrene)],119.92 ± 5.3 °C
16,*CC(*)n1c2ccccc2c2cc3ccccc3cc21 (repeat unit),253.00 °C
17,*Oc1ccc(C(=O)Nc2ccc(C(c3ccc(NC(=O)c4ccc(OC(=O)c5cccc(C(*)=O)c5)cc4)cc3)(C(F)(F)F)C(F)(F)F)cc2)cc1 (repeat unit),227.00 °C
18,*c1ccc(Oc2ccc(-c3nc(-c4cccc(-c5nnc(-c6ccccc6)c(*)n5)n4)nnc3-c3ccccc3)cc2)cc1 (repeat unit),219.00 °C
19,*CCC[Si](*)(C)c1ccccc1 (repeat unit),-1.50 °C
20,*Oc1ccc(/N=C/c2ccc(Oc3ccc(C(c4ccc(Oc5ccc(/C=N/c6ccc(Oc7ccc(-c8ccc(*)cc8)cc7)cc6)cc5)cc4)(C(F)(F)F)C(F)(F)F)cc3)cc2)cc1 (repeat unit),128.00 °C
21,*CC(*)(C)C(=O)OCCC1CCCCC1 (repeat unit),110.00 °C
22,*Nc1ccc(Cc2ccc(NC(=O)c3cc(NC(=O)CCCN4C(=O)c5ccccc5C4=O)cc(C(*)=O)c3)cc2)cc1 (repeat unit),220.00 °C
23,*C(=O)Nc1ccc(Oc2ccc(C3(c4ccc(Oc5ccc(NC(=O)c6ccc7c(c6)C(=O)N(c6ccc(Oc8cccc(Oc9ccc(N%10C(=O)c%11ccc(*)cc%11C%10=O)cc9)c8)cc6)C7=O)cc5)cc4)NC(=O)c4ccccc43)cc2)cc1 (repeat unit),267.00 °C
24,*C(=O)c1ccc2c(c1)C(=O)N(c1ccc(-c3ccccc3N3C(=O)c4ccc(*)cc4C3=O)cc1)C2=O (repeat unit),305.00 °C
